Experimental data reported in patent US20020193627A1, “Novel crystalline disodium pamidronate hydrate and process for preparing it” (priority 1999, published 2002).
Read-outs that look alike come from different tables or passages of the source.

Legend:
[1] = for Stability Evaluation (Stable hydrate): form listed as stable
Description: (1) anhydrous disodium pamidronate, (2) disodium pamidronate 3˜4 hydrates prepared in the example 2(water contents 18.50%), (3) disodium pamidronate 5 hydrates (water contents 24.41%)
(1) 1.000 g 1.200 g of anhydrous disodium pamidronate was accurately weighed and 15 samples were prepared.
(2) 1.000 g -1.200 g of disodium pamidronate 3˜4 hydrates was accurately weighed and I; samples were prepared.
(3) 1.000 g-1.200 g of disodium pamidronate 5 hydrates was accurately weighed and 15 samples were prepared.
(4) The tests were carried out under the following conditions:
1) Temperature (T) and humidity (relative humidity: RH): i) 24° C., 50% RH, ii) 40° C., 0% RH, iii) 40° C., 75% RH […]
i) 1 week ii) 2 weeks, iii) 3 weeks, iv) 4 weeks. v) 5 weeks
(5) After the tests were carried out, each sample was dried under reduced pressurekbelow 5 mmHg) at 150° C. for 5 hours, weighed the lost weight and determined the water contents.
The values show water contents (%).

[2] = Thermal Gravity Assay (TGA); type: physicochemical
Description: In order to confirm the physical properties of 3˜4 hydrates prepared in the example 2, the lattice distances (d-values) and relative line sensitivities of X-ray diffraction patterns were measured on the conditions of step sizes 0.012 from 2 theta 5 to 2 theta 50, scan velocity 3.000 and time 2.000 by using Rigaku D/Max-IIIB X-ray Diffractometer (XRD). The test results were shown on FIG. 1a and FIG. 1b. Thermal Gravity Assay for 3˜4 hydrates (TGA data) was carried out by using TA Instruments Model 2950 TGA Thermal Analyzer (TGA). The lost weight of the 3˜4 hydrtes was measured by gradually raising the temperature of 10° C. per minute from room temperature to 500° C. The results were shown on FIG. 2.

[3] = Soft gelatine capsule storage stability by visual observation; type: physicochemical; conditions: soft gelatine capsules (125 mg); 24° C., 50% RH; 6 months
Description: Soft gelatine capsules(125 mg) were respectively prepared from the crystalline disodium pamidronates of example 2 and comparative example by a conventional soft capsule manufacturing method. The soft capsules were stored in chamber which is controlled a constant temperature and hymidity (24° C., 50% RH) for 6 months. The stabilities of the soft capsules were tested by visual observation for the changes of properties, colors or shapes.

Row | Compound | water contents ([1]; 24° C., 50% RH, 1 week) [%] | water contents ([1]; 24° C., 50% RH, 2 weeks) [%] | water contents ([1]; 24° C., 50% RH, 3 weeks) [%] | water contents ([1]; 24° C., 50% RH, 4 weeks) [%] | water contents ([1]; 24° C., 50% RH, 5 weeks) [%] | behaviour of water contents on storage ([1]; 40° C. 0% RH) | behaviour of water contents on storage ([1]; 40° C. 75% RH) | water contents ([1]; 40° C., 0% RH, 1 week) [%] | water contents ([1]; 40° C., 0% RH, 2 weeks) [%] | water contents ([1]; 40° C., 0% RH, 3 weeks) [%] | water contents ([1]; 40° C., 0% RH, 4 weeks) [%] | water contents ([1]; 40° C., 0% RH, 5 weeks) [%] | Stability Evaluation (Stable hydrate) ([1]; 40° C., 0% RH) | water contents ([1]; 40° C., 75% RH, 1 week) [%] | water contents ([1]; 40° C., 75% RH, 2 weeks) [%] | water contents ([1]; 40° C., 75% RH, 3 weeks) [%] | water contents ([1]; 40° C., 75% RH, 4 weeks) [%] | water contents ([1]; 40° C., 75% RH, 5 weeks) [%] | changes of properties, colors or shapes of soft capsules by visual observation [3] | behaviour of water contents on storage ([1]; 24° C. 50% RH) | further results
1 | NCCC(O)(P(=O)([O-])O)P(=O)([O-])O.[Na+].[Na+] [Example 2, crystalline disodium pamidronate 3˜4 hydrates] | 18.19 | 18.03 | 18.04 | 18.31 | 18.28 | maintained stably | maintained stably | 17.12 | 17.20 | 17.37 | 17.10 | 17.22 | 3-4 hydrate | 17.20 | 17.66 | 17.45 | 17.15 | 17.26 | No changes are observed | – | Stability Evaluation (Stable hydrate) ([1]; 24° C., 50% RH): 3-4 hydrate; Stability Evaluation (Stable hydrate) ([1]; 40° C., 75% RH): 3-4 hydrate; overall stability among disodium pamidronate hydrates ([1]; all storage conditions): structurally the most stable; temperature from which water loss begins (TGA) ([2]; 10° C. per minute from room temperature to 500° C.): 50 °C; weight loss (TGA) ([2]; till 221.11° C., 14.26%+3.845%, error of measurement ±3%): 18.105%
2 | NCCC(O)(P(=O)([O-])O)P(=O)([O-])O.[Na+].[Na+] [comparative example, disodium 3-amino-1-hydroxypropane-1,1-diphosphonate] | 19.14 | 18.79 | 18.29 | 18.43 | 18.37 | maintained stably | maintained stably | 24.44 | 24.19 | 23.52 | 23.01 | 22.21 | – | 24.02 | 24.43 | 24.35 | 23.65 | 23.55 | changed in shapes (partly collapse by releasing water), colors and dewy phenomena on inner parts of the capsules | lost from 1 week | Stability Evaluation (Stable hydrate) ([1]; 40° C., 0% RH, listed as 5 hydrate): 5 hydrate; Stability Evaluation (Stable hydrate) ([1]; 40° C., 75% RH, listed as 5 hydrate): 5 hydrate
3 | anhydrous disodium pamidronate | 1.45 | 8.42 | 13.34 | 17.19 | 17.84 | – | – | 0.02 | 0.06 | 0.05 | 0.08 | 0.10 | anhydrous form | 7.14 | 14.39 | 18.20 | 18.24 | 18.22 | – | absorbed water | time after which converted to 3˜4 hydrates ([1]; 24° C. 50% RH): 4 weeks; behaviour of water contents on storage ([1]; 24° C., 0% RH): maintained stably; time after which converted to 3˜4 hydrates ([1]; 40° C. 75% RH): 3 weeks
